The source of these data is ChEMBL document CHEMBL1145143, “5'-Homoaristeromycin. Synthesis and antiviral activity against orthopox viruses” (Bioorg Med Chem Lett, 2005).

SMILES strings stand for the structures. Values after ≈ are worked out from the molar mass of the structure shown.

In one assay the test system is Vaccinia virus. Briefly: Concentration required for 50% inhibition of adohcy hydrolase by the compound against vaccinia virus in vero 76 cells. The assay is classed as functional, organism-based. To be noted: Orthopoxvirus vaccinia.
A short description of assay [1]: Cytotoxic concentration against cowpox, monkeypox and vaccinia virus in vero 76 cells. In kind it is functional. To be noted: Orthopoxvirus vaccinia.
Another assay concerns Cowpox virus. The assay can be described thus: Concentration required for 50% inhibition of adohcy hydrolase by the compound against cowpox virus in vero 76 cells. The assay is classed as functional, organism-based.
The nature of assay [2]: Concentration required for 50% inhibition of adohcy hydrolase by the compound against monkeypox virus in vero 76 cells. In kind it is functional, cell-based.

On to `Nc1ncnc2c1ncn2[C@@H]1C[C@H](CCO)[C@@H](O)[C@H]1O`, for which the IC50 with Vaccinia virus was determined as 1.2 mg/L (≈ 4.3 µM); with Cowpox virus it was 0.12 mg/L (≈ 0.43 µM); in assay [2], 0.12 mg/L (≈ 0.43 µM). The CC50 in assay [1] is more than 100 mg/L.
